Legend:
[1] = tested on: germline α promoter; assay: TAQMAN assay of endogenous germline α transcription in ST486 cells stimulated with TGF-β; type: cell-based; conditions: TGF-β 40 ng/ml, average of 3 values, p=0.3228
Procedure: The assay was similar to that described in the immediately preceding section, except that ST486 cells (ATCC # CRL-1647) engineered to express the tetracycline-regulated transactivator were infected and the infected cells were stimulated with TGF-β (40 ng/ml; Peprotech). The primers and probe, which are specific for the transcription product driven by the ST486 endogenous α promoter, were as follows (the probe was labeled at the 5′-end with Fam and at the 3′-end with Tamra): […]

[2] = molecular target: T1, human CLIC1 (hCLIC1) (Homo sapiens, UniProt O00299); assay: β-galactosidase yeast two hybrid (YTH) interaction assay; type: binding
T1 construct: expressed in transfected cells; prey cDNA from the A5T4 reporter line (derived from BJAB B-cells)
Procedure: Potential binding partners for peptide DL03 wt (SEQ ID: 1) were identified in a β-galactosidase yeast two-hybrid (YTH) assay using peptide DL03 wt (SEQ ID: 1) as bait and a cDNA library constructed from the A5T4 reporter cell line as prey. Binding was assessed by β-galactosidase quantification using BetaFluor (Novagen) as a substrate. A negative interaction control (no cDNA fused downstream of the GAL4 activation domain sequence) was also run. A general outline of the YTH assay is illustrated in FIG. 5A. Following clustering, filtering to remove non-specific bait hits (e.g., GFP and BFP), singletons and clusters recognized by 10 or more cDNA baits (based upon historical YTH assays), and prioritization, 22 prey clones were identified as hits.
Potential targets identified in the YTH assay were reconfirmed as generally outlined in FIG. 6. The cDNA clones identified as hits in the YTH assay were purified and rescreened for interaction with the DL03 wt (SEQ ID NO:1) peptide in a YTH assay. The hit clones were also screened in a control assay for interaction with the BFP using a vector (pGBKT7) that contained only the BFP and not the DL03 peptide. At this stage, 12 putative target clones remained.
The interaction of DL03 wt (SEQ ID NO:1) peptide and its mutants with the clones identified as potential targets for the peptide DL03 wt (SEQ ID NO:1) was then quantified in a β-galactosidase YTH assay. The YTH assay was performed in the manner described above. A general outline of this YTH assay is illustrated in FIG. 5B. For each clone tested, an interaction profile was developed by comparing the β-galactosidase activity of each mutant to that of the wild type peptide as described above.
The interaction of these IOF and ROF mutants with different polypeptides encoded by the putative target clones were quantified using the YTH assay described above. Based on the YTH assay, for each putative target, the mutants were categorized into the following four interaction categories: (1) reduction of interaction (ROI); (2) loss of interaction (LOI); (3) increase of interaction (IOI); and (4) interactionally neutral (N), by assessing the binding affinity ratio of the mutant peptide and the wild type peptide (β-gal activity of mutant/wild type) to the putative target. For the YTH interaction assay mutants DL03IL (SEQ ID NO:2), DL03KP (SEQ ID NO:3), DL03LA (SEQ ID NO:4), as well as originally identified peptide DL03 wt (SEQ ID NO:1) were used.
Based on these functional and interaction categorizations, graphic profile representations for each potential target polypeptide were obtained using a weighted categorization process as depicted in FIG. 9. […]

[3] = tested on: IL-4 induced germline ε transcription; assay: Re-infection assay in naïve A5T4 reporter cells (BFP-/BFP+ GFP FACS); type: cell-based, human; conditions: for functional category of mutant as compared to wild type peptide, based on reporter ratio: % change calculated after subtracting 1.0 from the individual ratios; for Reporter Ratio: screening in the A5T4 reporter line, DL03 wt and double-residue mutants
Procedure: The ability of peptide DL03 wt (SEQ ID NO:1) to inhibit germline ε transcription was confirmed in naïve cells. Briefly, Phoenix cells were transfected with a retroviral vector encoding a BFP-DL03 wt (SEQ ID NO:1) peptide fusion as described in WO 99/58663 and WO 97/27213. Naïve A5T4 cells were infected with the resultant virions and grown for 3 days. The infected cells were stimulated with IL-4 (60 U/mL) and, after 3 days, the cells were assessed by FACS for BFP and GFP. […] The BFP fluorescence data corresponding to the BFP^+ and BFP^− populations are provided in Panel A. The GFP fluorescence data corresponding to the BFP^+ and BFP^− populations are presented in Panel B. The reporter ratio for this purpose is determined as the geometric mean of the GFP fluorescence of the BFP^− population divided by the geometric mean of the GFP fluorescence of the BFP^+ population as presented in panel C. The reporter ratio for the DL03 in this re-infection assay was 1.50.
A collection of DL03 mutants was generated by replacing double amino acid residues in the sequence of DL03 wt (SEQ ID NO:1) with a different amino acid, typically an alanine, as described in copending application Ser. No. 10/095,659. The functional profiles for the mutants derived from DL03 wt (SEQ ID NO:1) was obtained by constructing and screening for activity in the A5T4 reporter cell line in the manner described above. The activity of each mutant at the germline ε promoter is reflected in the reporter ratio as described above. The reporter ratios were the functional values that were used to develop the functional profiles.
Comparison of the interaction and functional profiles was performed by categorizing the mutants of DL03 based on the functional and interaction assays. Based on the reporter ratio, described in panel C of FIG. 4, each mutant was categorized into one of four functional categories: (1) reduction of function (ROF); (2) loss of function (LOF); (3) increase of function (IOF) or (4) functionally neutral (N) as compared to the activity of the wild type peptide, here DL03 wt (SEQ ID NO:1). As mentioned previously, cells expressing a peptide that inhibits germline ε transcription have reporter ratios of ≧1.1. Cell expressing a loss of function (LOF) mutant have a reporter ratio of […]. […] Functionally neutral mutants have reporter ratios that fall within ±50% of that of the DL03 wt (SEQ ID NO:1). The % increase or decrease in reporter ratio is calculated after subtracting 1.0 from the individual ratios. Using these criteria, peptide DL03IL (SEQ ID NO:2) and peptide DL03LA (SEQ ID NO:4) were designated as ROF mutants, peptide DL03KP (SEQ ID NO:3) was designated as a IOF mutant, peptides DL03TS (SEQ ID NO:5), DL03GA (SEQ ID NO:6), DL03TT (SEQ ID NO:7), DL03AS (SEQ ID NO:8), and DL03MT (SEQ ID NO:9) were designated as neutral. No LOF mutant were found for the DL03 clone.

Substance: LYTS I LLHGATTASMTKPLA (LYTSILLHGATTASMTKPLA; peptide generated from a combinatorial library) [DL03wt, peptide 20-mer identified from a retroviral random library, expressed in cells as BFP-peptide fusion]
- endogenous α inhibition ratio [1]: 0.66
- binding to human CLIC1 in yeast two hybrid interaction assay [2]: found to bind

Substance: LYTS I LLHGATTASMTAALA (LYTSILLHGATTASMTAALA; peptide generated from combinatorial library) [DL03KP, double-residue mutant of DL03 wt]
- functional category of mutant as compared to wild type peptide, based on reporter ratio [3]: IOF (An increase of function mutant (IOF) shows a >50% increase in reporter ratio)
- binding to human CLIC1 in yeast two hybrid interaction assay [2]: found to bind

Substance: LYTS I LLHGATTASAAKPLA (LYTSILLHGATTASAAKPLA; Peptide generated from combinatorial library) [DL03MT, double-residue mutant of DL03 wt]
- functional category of mutant as compared to wild type peptide, based on reporter ratio [3]: neutral
- Reporter Ratio [3]: 1.30

Substance: LYTS I LLHGATTRAMTKPLA (LYTSILLHGATTRAMTKPLA; Peptide generated from combinatorial library) [DL03AS, double-residue mutant of DL03 wt]
- functional category of mutant as compared to wild type peptide, based on reporter ratio [3]: neutral
- Reporter Ratio [3]: 1.57

Substance: LYTS I LLHGAAAASMTKPLA (LYTSILLHGAAAASMTKPLA; peptide generated from combinatorial library) [DL03TT, double-residue mutant of DL03 wt]
- functional category of mutant as compared to wild type peptide, based on reporter ratio [3]: neutral
- Reporter Ratio [3]: 1.43

Substance: LYTS I LLHARTTASMTKPLA (LYTSILLHARTTASMTKPLA; peptide generated from combinatorial library) [DL03GA, double-residue mutant of DL03 wt]
- functional category of mutant as compared to wild type peptide, based on reporter ratio [3]: neutral
- Reporter Ratio [3]: 1.67

Substance: LYTS I LLHGATTASMTKPAR (LYTSILLHGATTASMTKPAR; peptide generated from combinatorial library) [DL03LA, double-residue mutant of DL03 wt]
- binding to human CLIC1 in yeast two hybrid interaction assay [2]: found to bind

Substance: LYAAI LLHGATTASMTKPLA (LYAAILLHGATTASMTKPLA; peptide generated from combinatorial library) [DL03TS, double-residue mutant of DL03 wt]
- functional category of mutant as compared to wild type peptide, based on reporter ratio [3]: neutral
- Reporter Ratio [3]: 1.49

Substance: LYTSAALHGATTASMTKPLA (Peptide generated by a combinatorial library) [DL03IL, double-residue mutant of DL03 wt]
- binding to human CLIC1 in yeast two hybrid interaction assay [2]: found to bind

From patent publication US7374894B2, “Methods of identifying compounds that modulate IL-4 receptor-mediated IgE synthesis utilizing a chloride intracellular channel 1 protein” (Rigel Pharmaceuticals, Inc., priority 2002, dated 2008)
